Assay results from patent publication US4549023A, “3-Aminoindazole derivatives” (priority 1980, dated 1985).
Where two headings read alike, the source gives them in different places.

Tests used:
[1] = Acute toxicity (LD50), intravenous injection; details: mouse, in vivo, male ddY-strain mice, read-out: LD50, Table 19
Protocol: Acute toxicity was measured by an ordinary method described in Finney DJ Probit Analysis Cambridge University Press 48, (1952). Ddy mice weighing about 18 g on average, each group consisting of 10 animals, were […] injected with the physiological salt solution containing the test compound. The amount of the test compound administered was varied in 5-8 groups. Three days after the administration, dead animals were counted in each group. The amount of the test compound killing half the number of the animals (LD50) was calculated from the results.
The acute toxicity of the 3-aminoindazole derivatives and their hydrochloric acid salts obtained by Examples 1-49 of this invention was measured by giving male ddY-strain mice an intravenous injection.

[2] = test system: carrageenin edema in rat's paw; assay: Carrageenin Edema Test in Rat's Paw (anti-inflammatory activity); assay type: in vivo, Female Wistar rats; details: for inhibition in vivo at 100 mg/kg: Rattus norvegicus, hydrochloric acid salts; for Inhibition values compared with comparative compounds: Table 1, 100 mg/kg
Protocol: A standard method of Carrageenin Edema Test in Rat's Paw described in C. A. Winter et al., Proc. Soc. Exp. Biol. Med., 111, 544 (1962) was employed.
[…] One hour later, the pad of a hind paw of the rat was injected with 0.1 ml of 1% aqueous carrageenin solution. The volume of the paw was measured both before the injection of carrageenin and three hours after the injection.
The edema inhibition percentage of the test compound was calculated from the ratio of the increase in the volume of the affected paw of the test animals to the increase in the volume of the affected paw of the controls.
The anti-inflammatory activity of the 3-aminoindazole derivative hydrochloric acid salts of this invention was measured.
The anti-inflammatory activity of the 3-aminoindazole derivative hydrochloric acid salts obtained by Examples 1-49 of this invention was measured by the standard method of carrageenin edema test. In these tests, the amount of the administration of the salts was 100 mg/kg. The results are shown in Table 17 (Inhibition (%) was measured three hours after the injection).

[3] = po, 3 h, 100 mg/kg, measured three hours after the injection, read-out: Inhibition (carrageenin edema), Table 17
[4] = 100 mg/kg, oral, 3 h after carrageenin, read-out: Inhibition (carrageenin edema), Table 1

Structure (SMILES) | LD50 at 72 h [1] | inhibition in vivo at 100 mg/kg [2, 3] | also measured
c1ccc2c(NCCN3CCCCC3)n[nH]c2c1 [Compound (1), 3-(2-piperidinoethylamino)indazole] | 146 mg/kg | 48% | –
c1ccc2c(NCCCCCCN3CCCCC3)n[nH]c2c1 [Compound (3), 3-(6-piperidinohexylamino)indazole] | 143 mg/kg | 30% | –
c1ccc2c(NCCCN3CCCC3)n[nH]c2c1 [Compound (4), 3-(3-pyrrolidinopropylamino)indazole] | 97 mg/kg | 30% | inhibition in vivo at 100 mg/kg [2, 4]: 30%; Inhibition values compared with comparative compounds [2]: higher than that of the compound C-1
c1ccc2c(NCCCN3CCCCCC3)n[nH]c2c1 [Compound (5), 3-(3-homopiperidinopropylamino)indazole] | 175 mg/kg | 59% | –
CC1CCCC(C)N1CCCNc1n[nH]c2ccccc12 (stereo not drawn) [Compound (7), 3-{3-(2,6-dimethylpiperidino)propylamino}indazole] | 143 mg/kg | 35% | –
OC1CCN(CCCNc2n[nH]c3ccccc23)CC1 [Compound (8), 3-{3-(4-hydroxypiperidino)propylamino}indazole] | 358 mg/kg | 47% | –
ClC1CCN(CCCNc2n[nH]c3ccccc23)CC1 [Compound (9), 3-{3-(4-chloropiperidino)propylamino}indazole] | 347 mg/kg | 68% | –
CCCCN(CCCC)CCCNc1n[nH]c2ccccc12 [Compound (11), 3-(3-di-n-butylaminopropylamino)indazole] | 115 mg/kg | 65% | –
CN(C)CCNc1n[nH]c2ccccc12 [Compound (12), 3-(2-dimethylaminoethylamino)indazole] | 334 mg/kg | 52% | –
CN1CCN(CCCNc2n[nH]c3ccccc23)CC1 [Compound (13), 3-{3-(4-methylpiperazino)propylamino}indazole] | 359 mg/kg | 30% | inhibition in vivo at 100 mg/kg [2, 4]: 30%; Inhibition values compared with comparative compounds [2]: higher than that of the compound C-1
CC(CCNc1n[nH]c2ccccc12)N1CCCCC1 (stereo not drawn) [Compound (14), 3-(3-piperidinobutylamino)indazole] | 95 mg/kg | 55% | –
CC(C)CC(CCNc1n[nH]c2ccccc12)N1CCCCC1 (stereo not drawn) [Compound (15), 3-(5-methyl-3-piperidinohexylamino)indazole] | 144 mg/kg | 42% | –
CCN(CC)C(C)CCNc1n[nH]c2ccccc12 (stereo not drawn) [Compound (16)] | 184 mg/kg | 63% | –
Nc1nn(CCN2CCCCC2)c2ccccc12 [Compound (17), 1-(2-piperidinoethyl)-3-aminoindazole] | 143 mg/kg | 47% | –
Nc1nn(CCCCCCN2CCCCC2)c2ccccc12 [Compound (19), 1-(6-piperidinohexyl)-3-aminoindazole] | 144 mg/kg | 29% | –
Nc1nn(CCCN2CCCC2)c2ccccc12 [Compound (20), 1-(3-pyrrolidinopropyl)-3-aminoindazole] | 98 mg/kg | 29% | –
CCCNc1n[nH]c2ccccc12 [Compound C-1, 3-(propylamino)indazole, reference compound] | – | – | inhibition in vivo at 100 mg/kg [2, 4]: 7%
CCCn1nc(N)c2ccccc21 [Compound C-2, 1-propyl-3-aminoindazole, reference compound] | – | – | inhibition in vivo at 100 mg/kg [2, 4]: 7%
Nc1nn(CCc2ccccc2)c2ccccc12 [Compound C-3, 1-(2-phenylethyl)-3-aminoindazole, reference compound] | – | – | inhibition in vivo at 100 mg/kg [2, 4]: 7%
CN(C)CCNc1nn(-c2ccccc2)c2ccccc12 [Compound C-5, 1-phenyl-3-(2-dimethylaminoethylamino)indazole, reference compound] | – | – | Inhibition (carrageenin edema), Table 2 ([2]; 25 mg/kg, oral): 15%; Inhibition (carrageenin edema), Table 2 ([2]; 50 mg/kg, oral): 18%; Inhibition (carrageenin edema), Table 2 ([2]; 100 mg/kg, oral): 55%
